{
  "source": "patent US20110281807A1",
  "about": "“PLANT DISEASE CONTROL AGENT COMPRISING D-TAGATOSE AS ACTIVE INGREDIENT, AND PLANT DISEASE CONTROL METHOD” (NATIONAL UNIVERSITY CORPORATION KAGAWA UNIVERSITY, priority 2008, published 2011)",
  "key": {"[1]": {"test_system": "Pseudoperonospora cubensis", "assay": "cucumber downy mildew, pot test: curative effect", "experimental": "Test plants (cucumber, variety: Sagami hanpaku) were seeded and grown until the one true leaf stage. And then a sporangium suspension of Pseudoperonospora cubensis containing 1×10^3/ml were sprayed on the back side of the leaves of test plants for inoculation and then the plants were put for 16 hours in an inoculation chamber (20° C. to 23° C.) to promote disease. For a curative test, the inoculated plants as described above were used.\nD-Tagatose was diluted to 5%, 1% and 0.5% with distilled water and then 10 ml of the dilution was sprayed on the test plant. Seven days after the spraying of D-tagatose the disease severity of the test plants was observed and the effectiveness of test sample was judged. Tests were carried out using two plants for each test set and the disease severity of the test plants was judged. The control value was calculated from the degree of disease severity as in Example 1."}, "[2]": {"test_system": "Pseudoperonospora cubensis", "conditions": "Pseudoperonospora cubensis, in Cucumis sativus, 168 h, read-out: Preventive value", "experimental": "Test plants (cucumber, variety: Sagami hanpaku) were seeded and grown until the one true leaf stage. And then, a sporangium suspension of Pseudoperonospora cubensis containing 1×10^3/ml were spraying for inoculation on the back side of the leaves of test plants and then put for 16 hours in an inoculation chamber (20° C. to 23° C.) to promote disease. For a curative test, the inoculated plants as described above were used.\nD-Tagatose was diluted to 5000 ppm and the fungicides were diluted to the concentrations listed in table 15, with distilled water, and 10 ml of the dilution was sprayed. Seven days after inoculation the disease severity of the test plants was observed and the effectiveness of test sample was judged."}, "[3]": {"test_system": "Pseudoperonospora cubensis", "assay": "cucumber downy mildew, field trial", "type": "in vivo", "conditions": "for D.D.S (Degree of disease severity), Av / P.V. (Preventive value), Av / n/N × 100, Av: average of plots; for D.D.S (Degree of disease severity) / P.V. (Preventive value) / n/N × 100 / Disease severity 0: number of leaves / Disease severity 1: number of leaves / Disease severity 2: number of leaves / Disease severity 3: number of leaves / Disease severity 4: number of leaves: per plot (a, b); for Disease severity 0: number of leaves / Disease severity 1: number of leaves / Disease severity 2: number of leaves / Disease severity 3: number of leaves / Disease severity 4: number of leaves: 50 leaves"}, "[4]": {"test_system": "Pythium aphanidermatum", "conditions": "for Preventive value: 10 ml soil drench, from germination rate after 2 weeks", "experimental": "Five seeds of test plants (cucumber, variety: Sagami hanpaku) were sowed in a pot (5×5 cm), which contains infested soil with Pythium aphanidermatum (mycelium 100 g/1 L soil) and the seeds were covered with the soil. […] After 2 weeks, the disease severity of the test plants was observed and the effectiveness of test sample was judged. Tests were carried out in triplicate using 5 plants for each test set and the preventive value was calculated from the germination rate."}, "[5]": {"test_system": "Pseudoperonospora cubensis", "assay": "cucumber downy mildew, pot test: preventive effect", "conditions": "for Preventive value (3 DAS): inoculated 3 days after spraying; for Preventive value (5 DAS): inoculated 5 days after spraying", "experimental": "Test plants (cucumber, variety: Sagami hanpaku) were seeded and grown until the one true leaf stage. D-Tagatose was diluted to 5%, 1% and 0.5% with distilled water and then 10 ml of the dilution was sprayed on the test plant. Three or five days after spraying, a sporangium suspension of Pseudoperonospora cubensis containing 1×10^3/ml were inoculated by spraying on test plants and then the plants were put for 16 hours in an incubation chamber (20° C. to 23° C.) to promote disease. Seven days after inoculation the disease severity of the test plants was observed and the effectiveness of test sample was judged. Tests were carried out using two plants for each test set and the disease severity of the test plants was judged in accordance with the following criteria. The preventive value was calculated from the degree of the disease severity.\n0 (No lesion) 1 (Lesion area was not more than 40%) 2 ((Lesion area was 40%-80%) 3 (Lesion area was not less than 80%)\nPreventive value=100{1−(n/N)} N=disease severity of untreated leaf, n=disease severity of the tested leaf"}, "[6]": {"conditions": "50000 ppm spray, listed as D-tagatose"}},
  "note": "“And” between values parts separate entries of the source, which are not always exact repeats. Equal entries are not always repeated. Where two headings read alike, the source gives them in different places.",
  "data": [
    {"molecule": "O=C(CO)[C@@H](O)[C@@H](O)[C@H](O)CO", "note": "[D-Tagatose, D-tagatose]", "values": [
      {"measurement": "Preventive value (control value)", "setting": "[1]; 5000 ppm sprayed after inoculation (curative)", "result": 22.5},
      {"measurement": "Preventive value (control value)", "setting": "[1]; 10000 ppm sprayed after inoculation (curative)", "result": 91.7},
      {"measurement": "Preventive value (control value)", "setting": "[1]; 50000 ppm sprayed after inoculation (curative)", "result": 100.0},
      {"measurement": "Preventive value (control value)", "setting": "[1]; 50000 ppm sprayed after inoculation (curative), listed as D-tagatose", "result": 100},
      {"measurement": "effectiveness in words", "setting": "[1]; curative test condition", "result": "effective enough"},
      {"measurement": "pest or weed control at 5000 ppm", "setting": "[2]", "result": 33, "unit": "%"},
      {"measurement": "pest or weed control at 10000 ppm", "setting": "[2]", "result": 73, "unit": "%"},
      {"measurement": "D.D.S (Degree of disease severity), Av", "setting": "[3]; 10000 ppm", "result": 2.25},
      {"measurement": "P.V. (Preventive value), Av", "setting": "[3]; 10000 ppm", "result": 96.5},
      {"measurement": "n/N × 100, Av", "setting": "[3]; 10000 ppm", "result": 9.0},
      {"measurement": "D.D.S (Degree of disease severity)", "setting": "[3]; 10000 ppm", "result": "3.00 and 1.50"},
      {"measurement": "P.V. (Preventive value)", "setting": "[3]; 10000 ppm", "result": "95.4 and 97.7"},
      {"measurement": "n/N × 100", "setting": "[3]; 10000 ppm", "result": "12.0 and 6.0"},
      {"measurement": "Disease severity 0: number of leaves", "setting": "[3]; 10000 ppm", "result": "44 and 47"},
      {"measurement": "Disease severity 1: number of leaves", "setting": "[3]; 10000 ppm", "result": "6 and 3"},
      {"measurement": "Disease severity 2: number of leaves", "setting": "[3]; 10000 ppm", "result": 0},
      {"measurement": "Disease severity 3: number of leaves", "setting": "[3]; 10000 ppm", "result": 0},
      {"measurement": "Disease severity 4: number of leaves", "setting": "[3]; 10000 ppm", "result": 0},
      {"measurement": "D.D.S (Degree of disease severity), Av", "setting": "[3]; 50000 ppm", "result": 2.50},
      {"measurement": "P.V. (Preventive value), Av", "setting": "[3]; 50000 ppm", "result": 96.1},
      {"measurement": "n/N × 100, Av", "setting": "[3]; 50000 ppm", "result": 10.0},
      {"measurement": "D.D.S (Degree of disease severity)", "setting": "[3]; 50000 ppm", "result": "3.00 and 2.00"},
      {"measurement": "P.V. (Preventive value)", "setting": "[3]; 50000 ppm", "result": "95.4 and 96.9"},
      {"measurement": "n/N × 100", "setting": "[3]; 50000 ppm", "result": "12.0 and 8.0"},
      {"measurement": "Disease severity 0: number of leaves", "setting": "[3]; 50000 ppm", "result": "44 and 46"},
      {"measurement": "Disease severity 1: number of leaves", "setting": "[3]; 50000 ppm", "result": "6 and 4"},
      {"measurement": "Disease severity 2: number of leaves", "setting": "[3]; 50000 ppm", "result": 0},
      {"measurement": "Disease severity 3: number of leaves", "setting": "[3]; 50000 ppm", "result": 0},
      {"measurement": "Disease severity 4: number of leaves", "setting": "[3]; 50000 ppm", "result": 0},
      {"measurement": "effectiveness in words", "setting": "[3]; field test", "result": "effective enough"},
      {"measurement": "Preventive value", "setting": "[4]; 10000 ppm", "result": 70.0},
      {"measurement": "Preventive value", "setting": "[4]; 50000 ppm", "result": 92.5},
      {"measurement": "effectiveness in words", "setting": "[4]; soil drench", "result": "effective enough"},
      {"measurement": "Preventive value (3 DAS)", "setting": "[5]; 5000 ppm spray", "result": 49.2},
      {"measurement": "Preventive value (5 DAS)", "setting": "[5]; 5000 ppm spray", "result": 37.5},
      {"measurement": "Preventive value (3 DAS)", "setting": "[5]; 10000 ppm spray", "result": 99.2},
      {"measurement": "Preventive value (5 DAS)", "setting": "[5]; 10000 ppm spray", "result": 90.0},
      {"measurement": "Preventive value (5 DAS)", "setting": "[5]; 10000 ppm spray, listed as D-tagatose", "result": 90},
      {"measurement": "Preventive value (3 DAS)", "setting": "[5]; 50000 ppm spray", "result": 100.0},
      {"measurement": "Preventive value (3 DAS)", "setting": "[5]; [6]", "result": 100},
      {"measurement": "Preventive value (5 DAS)", "setting": "[5]; 50000 ppm spray", "result": 100.0},
      {"measurement": "Preventive value (5 DAS)", "setting": "[5]; [6]", "result": 100}
    ]}
  ]
}
